Biological target: T1, IL-17A/A (Homo sapiens, UniProt Q16552)
T1 construct: purchased Genscript Z03228
T1 sequence (Q16552 24-155): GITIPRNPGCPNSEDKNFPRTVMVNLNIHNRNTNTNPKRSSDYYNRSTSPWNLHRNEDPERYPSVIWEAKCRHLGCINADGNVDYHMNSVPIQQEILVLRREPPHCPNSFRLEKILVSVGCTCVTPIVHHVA
Assay: IL-17A/A HEK-Blue cell assay
Assay type: cell-based
Details: HEK-Blue IL-17A reporter cell line (HEK 293), IL-17A/A stimulation, 20 hours incubation, SEAP read at A630
Experimental: The HEK-Blue IL-17A reporter cell line (Fisher #NC1408637) was used for cell-based IL-17A/A inhibition assays. Cells were grown and prepared for assays according to the manufacturer's instructions. This cell line consists of HEK 293 cells that were designed to expressed IL-17RA, IL-17RC, and the ActI adapter molecule, the combination of which, when stimulated by IL-17A/A activates a NFκB promoter and drives expression of a recombinant Secreted Alkaline Phosphatase (SEAP) gene protein. Media from the cells is then added to a development reagent (Quanti-Blue Substrate, Fisher #NC9711613), and read at A630.
Compounds were titrated in DMSO, with a top final compound concentration of 10 uM, 1 uM, or 0.3 uM, and added to the cells immediately before adding IL-17A/A (Genscript #Z03228). The cells, compound, and IL-17A/A were then incubated for 20 hours before media was removed for SEAP analysis. The resulting inhibition curve was then analyzed using Graphpad Prism 7.0, and IC50 values were determined using a 4-parameter nonlinear fit. DMSO was added to a universal final concentration of 0.1% to optimize background.

Structure (SMILES)	IC50
CCn1nccc1C(=O)NC(c1cn2nc(CC3C[C@@H](C(F)(F)F)CNC3=O)ccc2n1)C1CCC2CC2CC1 (single isomer, unassigned) [Compound 174]	> 1000 nM
O=C(N[C@H](c1cn2nc(CC3C[C@@H](C(F)(F)F)CNC3=O)ccc2n1)[C@@H]1CCCC(F)(F)C1)c1nonc1C1CC1 (stereo partly drawn) [Compound 145, 4-cyclopropyl-N—((S)-((R)-3,3-difluorocyclohexyl)(6-(((5R)-2-oxo-5-(trifluoromethyl)piperidin-3-yl)methyl)imidazo[1,2-b]pyridazin-2-yl)methyl)-1,2,5-oxadiazole-3-carboxamide]	< 100 nM
O=C(N[C@H](c1cn2nc(CC3C[C@H](C(F)(F)F)CNC3=O)ccc2n1)[C@H]1CCCC(F)(F)C1)c1nonc1C1CC1 (stereo partly drawn) [Compound 155, 4-cyclopropyl-N—((S)-((S)-3,3-difluorocyclohexyl)(6-(((5S)-2-oxo-5-(trifluoromethyl)piperidin-3-yl)methyl)imidazo[1,2-b]pyridazin-2-yl)methyl)-1,2,5-oxadiazole-3-carboxamide]	< 100 nM
CCn1nccc1C(=O)N[C@H](c1cn2nc(CC3CC(C(C)(F)F)NC3=O)ccc2n1)C1CCC(F)(F)CC1 (single isomer, unassigned) [Compound 69]	100 to 1000 nM
CCn1nccc1C(=O)NC(c1cn2nc(CC3CC(F)(F)CNC3=O)ccc2n1)C1CCCC(F)(F)C1 (mixture of isomers) [Compound 32, N-((6-((5,5-difluoro-2-oxopiperidin-3-yl)methyl)imidazo[1,2-b]pyridazin-2-yl)(3,3-difluorocyclohexyl)methyl)-1-ethyl-1H-pyrazole-5-carboxamide]	100 to 1000 nM
CCn1nccc1C(=O)N[C@H](c1cn2nc(C[C@H]3C[C@@H](C(F)(F)F)CNC3=O)c(C#N)cc2n1)C1CCC(F)(F)CC1 [Compound 81]	100 to 1000 nM
O=C(N[C@H](c1cn2nc(CC3C[C@@H](C(F)(F)F)CNC3=O)ccc2n1)C1CCC(F)(F)CC1)c1conc1C1(C(F)(F)F)CC1 (stereo partly drawn) [Compound 138, N-((1S)-(4,4-difluorocyclohexyl)(6-(((5R)-2-oxo-5-(trifluoromethyl)piperidin-3-yl)methyl)imidazo[1,2-b]pyridazin-2-yl)methyl)-3-(1-(trifluoromethyl)cyclopropyl)isoxazole-4-carboxamide]	100 to 1000 nM
CCn1nccc1C(=O)N[C@H](c1cn2ncc(CC3CCCNC3=O)cc2n1)C1CCCCCC1 (mixture of isomers) [Compound 206, N-((1S)-cycloheptyl(7-((2-oxopiperidin-3-yl)methyl)imidazo[1,2-b]pyridazin-2-yl)methyl)-1-ethyl-1H-pyrazole-5-carboxamide]	> 1000 nM
O=C(N[C@H](c1cn2nc(CC3C[C@@H](C(F)(F)F)CNC3=O)ccc2n1)C1CCC(F)(F)CC1)c1conc1CF (stereo partly drawn) [Compound 119, N-((1S)-(4,4-difluorocyclohexyl)(6-(((5R)-2-oxo-5-(trifluoromethyl)piperidin-3-yl)methyl)imidazo[1,2-b]pyridazin-2-yl)methyl)-3-(fluoromethyl)isoxazole-4-carboxamide]	100 to 1000 nM
CCn1nccc1C(=O)N[C@H](c1cn2nc(CC3C[C@@H](C(F)(F)F)CNC3=O)c(N(C)CC(F)(F)F)cc2n1)C1CCC(F)(F)CC1 (single isomer, unassigned) [Compound 182]	100 to 1000 nM
CCn1nccc1C(=O)N[C@H](c1cn2nc(CC3C[C@@H](C(F)(F)F)CNC3=O)ccc2n1)C1CC2(CCC2)C1 (single isomer, unassigned) [Compound 190]	> 1000 nM
CC[C@@H]1CC(Cc2ccc3nc([C@@H](NC(=O)c4ccnn4CC)[C@H]4CC[C@H](C)CC4)cn3n2)C(=O)N1 (stereo partly drawn) [Compound 59, 1-ethyl-N-((1S)-(6-(((5R)-5-ethyl-2-oxopyrrolidin-3-yl)methyl)imidazo[1,2-b]pyridazin-2-yl)((1r,4S)-4-methylcyclohexyl)methyl)-1H-pyrazole-5-carboxamide]	100 to 1000 nM
CCn1nccc1C(=O)N[C@H](c1cn2nc(CC3C[C@@H](C(F)(F)F)CNC3=O)c(N(C)CC(F)(F)F)cc2n1)C1CCC(F)(F)CC1 (single isomer, unassigned) [Compound 181]	< 100 nM
CCc1nonc1C(=O)N[C@H](c1cn2nc(CC3C[C@@H](C(F)(F)F)CNC3=O)ccc2n1)[C@H]1CC[C@H](C)CC1 (stereo partly drawn) [Compound 141, 4-Ethyl-N-((1S)-((1R.4S)-4-methylcyclohexyl)(6-(((5R)-2-oxo-5-(trifluoromethyl)piperidin-3-yl)methyl)imidazo[1,2-b]pyridazin-2-yl)methyl)-1,2,5-oxadiazole-3-carboxamide]	< 100 nM
CCn1nccc1C(=O)N[C@H](c1cn2nc(CC3(C)C[C@@H](C(F)(F)F)CNC3=O)ccc2n1)[C@H]1CC[C@H](C)CC1 (single isomer, unassigned) [Compound 67]	100 to 1000 nM
CCn1nccc1C(=O)N[C@H](c1cn2nc(CC3C[C@@H](C(F)(F)F)CNC3=O)c(C(F)(F)F)cc2n1)[C@H]1CC[C@H](C)CC1 (single isomer, unassigned) [Compound 78]	100 to 1000 nM
CCn1nccc1C(=O)N[C@H](c1cn2nc(C[C@H]3CCCNC3=O)ccc2n1)C(C1CC1)C1CC1 (single isomer, unassigned) [Compound 34]	> 1000 nM
CCn1nccc1C(=O)N[C@H](c1cn2nc(CC3C[C@H](C(F)(F)F)CNC3=O)ccc2n1)C(C1CC1)C1CC1 (stereo partly drawn) [Compound 153, N-((1S)-2,2-dicyclopropyl-1-(6-(((5S)-2-oxo-5-(trifluoromethyl)piperidin-3-yl)methyl)imidazo[1,2-b]pyridazin-2-yl)ethyl)-1-ethyl-1H-pyrazole-5-carboxamide]	100 to 1000 nM
CCn1nccc1C(=O)N[C@H](c1cn2nc(CC3C[C@@H](C(F)(F)F)CNC3=O)ccc2n1)[C@@H]1CCCC(F)(F)C1 (stereo partly drawn) [Compound 143, N-((1S)—((R)-3,3-difluorocyclohexyl)(6-(((5R)-2-oxo-5-(trifluoromethyl)piperidin-3-yl)methyl)imidazo[1,2-b]pyridazin-2-yl)methyl)-1-ethyl-1H-pyrazole-5-carboxamide]	< 100 nM
CCn1nccc1C(=O)N[C@H](c1cn2nc(CC3CC(C4CC4)CNC3=O)ccc2n1)C1CCC(F)(F)CC1 (single isomer, unassigned) [Compound 70]	100 to 1000 nM
CCn1nccc1C(=O)N[C@H](c1cn2nc(CC3C[C@@H](C(F)(F)F)CNC3=O)ccc2n1)[C@H]1C[C@@H](C2CC2)C1 (stereo partly drawn) [Compound 179, N-((1S)-((1S,3R)-3-cyclopropylcyclobutyl)(6-(((5R)-2-oxo-5-(trifluoromethyl)piperidin-3-yl)methyl)imidazo[1,2-b]pyridazin-2-yl)methyl)-1-ethyl-1H-pyrazole-5-carboxamide]	> 1000 nM
CCn1nccc1C(=O)N[C@H](c1cn2ncc(CC3C[C@@H](C(F)(F)F)NC3=O)cc2n1)C1CCCCCC1 (mixture of isomers) [Compound 207, N-((l S)-cycloheptyl(7-(((5S)-2-oxo-5-(trifluoromethyl)pyrrolidin-3-yl)methyl)imidazo[1,2-b]pyridazin-2-yl)methyl)-1-ethyl-1H-pyrazole-5-carboxamide]	< 100 nM
CCn1nccc1C(=O)N[C@H](c1cn2nc(CC3CC(F)(F)CNC3=O)c(C)cc2n1)C1CCC(F)(F)CC1 (single isomer, unassigned) [Compound 77]	> 1000 nM
CCn1nccc1C(=O)N[C@H](c1cn2nc(CC3CC4(CC4)CNC3=O)ccc2n1)[C@H]1CC[C@H](C)CC1 (single isomer, unassigned) [Compound 64]	100 to 1000 nM
O=C(N[C@H](c1cn2nc(CC3C[C@@H](C(F)(F)F)CNC3=O)ccc2n1)[C@@H]1CCCC(F)(F)C1)c1conc1C1CC1 (stereo partly drawn) [Compound 147, 3-cyclopropyl-N-((1S)—((R)-3,3-difluorocyclohexyl)(6-(((5R)-2-oxo-5-(trifluoromethyl)piperidin-3-yl)methyl)imidazo[1,2-b]pyridazin-2-yl)methyl)isoxazole-4-carboxamide]	100 to 1000 nM
CCn1nccc1C(=O)N[C@H](c1cn2ncc(CC3C[C@@H](C(F)(F)F)NC3=O)cc2n1)C(C1CC1)C1CC1 (single isomer, unassigned) [Compound 201]	> 1000 nM
O=C(N[C@H](c1cn2nc(CC3C[C@@H](C(F)(F)F)CNC3=O)ccc2n1)C1CCC(F)(F)CC1)c1conc1C1CC1(F)F (single isomer, unassigned) [Compound 126]	< 100 nM
CC(C)n1nccc1C(=O)N[C@H](c1cn2nc(CC3C[C@H](C(F)(F)F)CNC3=O)ccc2n1)[C@H]1CCCC(F)(F)C1 (stereo partly drawn) [Compound 159, N-((1S)—((S)-3,3-difluorocyclohexyl)(6-(((5S)-2-oxo-5-(trifluoromethyl)piperidin-3-yl)methyl)imidazo[1,2-b]pyridazin-2-yl)methyl)-1-isopropyl-1H-pyrazole-5-carboxamide]	< 100 nM
CC[C@@H](c1ccc(F)cc1)[C@H](NC(=O)c1ccnn1CC)c1cn2nc(CC3C[C@@H](C(F)(F)F)CNC3=O)ccc2n1 (stereo partly drawn) [Compound 168, 1-ethyl-N-((1S,2S)-2-(4-fluorophenyl)-1-(6-(((3R.5R)-2-oxo-5-(trifluoromethyl)piperidin-3-yl)methyl)imidazo[1,2-b]pyridazin-2-yl)butyl)-1H-pyrazole-5-carboxamide]	< 100 nM

— patent US20250346602A1, “LACTAM SUBSTITUTED IMIDAZOPYRIDAZINE IL-17A MODULATORS AND USES THEREOF” (DICE ALPHA, INC., priority 2022, published 2025)
